Experimental data from patent EP4306512A1, “QUINOLYLNITRONES WITH IMPROVED POTENCY” (Fundación para la Investigación Biomédica del Hospital …, priority 2022, dated 2024).

System: Primary neuronal cultures
Test: Neuroprotection after oxygen-glucose deprivation (OGD 4 h, 24 h recovery) in primary neuronal cultures, cell viability by MTT assay
Assay type: cell-based, rat
Conditions: for cell viability: MTT absorbance after OGD 4 h and 24 h recovery, R24h vehicle 1.480 ± 0.02 AU, control 1.916 ± 0.07 AU; for Neuroprotection at 1 µM / Neuroprotection at 10 µM / Neuroprotection at 100 µM: Rattus norvegicus; for Neuroprotection at 1 µM: Conc 1 µM; for Neuroprotection at 10 µM: Conc 10 µM; for protective effect (cell viability compared with vehicle-treated group R24h), in words: concentration range tested, from 0.1 to 250 µM; for neuroprotection effect / potency compared with references, in words: 1 µM for the compounds of the invention vs 10 µM for QN23 and 100 µM NXY-059; for toxicity / safety, in words: all tested doses
Description: Primary Neuronal Cultures. Primary neuronal cultures were prepared from rat embryos cerebral cortex following a procedure previously described by our group. Briefly, cell suspensions were prepared from cerebral cortices from E16 Sprague Dawley rat embryos and seeded on plastic multidishes precoated with 0.05 mg/mL poly-D-lysine at a density of 2.5 × 10^5 cells/cm^2. Cells were kept at 37 °C in a 6.5% CO2 atmosphere in high glucose DMEM medium supplemented with 15% heat-inactivated (56 °C, 30 min) fetal calf serum. After 24 h, culture medium was replaced by serum-free medium (DMEM/Ham's F12, 1:1 vol/vol, 5 mg/mL glucose, 2 mM L-glutamine, and 1 mM sodium pyruvate, supplemented with 100 µg/mL transferrin, 100 µM putrescine, 30 nM sodium selenite, 20 nM progesterone, and 5 µg/mL insulin). In these experiments, 6- to 7-days in vitro (DIV) neuronal cultures were used, containing 90% β-tubulin isotype III-positive mature neurons, as described previously.^23 All procedures associated with animal experiments were authorized by the Animal Experimentation Ethics Committee of the Hospital Universitario Ramón y Cajal (Madrid, Spain).
Experimental Ischemia in Neuronal Cultures and Treatments. Primary neuronal cultures were subjected to oxygen-glucose deprivation (OGD) to induce experimental ischemia. Cells cultured for 6- to 7- DIV were washed and placed in glucose-free DMEM medium (previously bubbled with 95% N2/5% CO2 for 30 min) and kept in a humidified anaerobic chamber containing a gas mixture of 95% N2/5% CO2 at 37 °C for 4 h (OGD 4h). Control group was placed in glucose-supplemented DMEM medium and kept in the normoxic incubator for 4h. After 4h of incubation under anoxic (OGD 4h) or normoxic (control) conditions, culture cells were quickly placed in serum-free normo-glycemic culture medium and let to reoxygenate, compounds or vehicle were added and cells were maintained in normoxic and normoglycemic conditions to recover for 24 h. Vehicle experimental group (R24h) included the same amount of vehicle solution than the groups tested with compounds (final concentration < 0.5% ethanol). The experimental procedure was blindly performed, assigning a random order to each group assayed. Compound assays were performed independently from four to eight times with different batches of cultures, and each experiment was run in quadruplicate.
Cell viability assays. To assess the potential neuroprotective effect of the compounds against OGD, cell viability was evaluated by quantification of living, metabolically active cells, as determined by the colorimetric assay using the photometric reduction of 3-(4,5-dimethylthiazol-2-yl)-2,5-diphenyl tetrazolium bromide (MTT) (Roche) to a blue formazan product. MTT assay was performed after the 24-hour-long recovery period -except for the OGD 4h group, for which MTT was added right after the end of the OGD period, with no recovery- by treating cells with 0.2 mg/mL MTT in the culture medium for 1.5 h at 37 °C in a 6.5% CO2 atmosphere. After incubation, cells were lysed with an equal volume of lysis solution (10 mM HCl, 10% SDS) overnight. Values were quantified by absorbance at 595 nm (reference 690 nm) and expressed in Absorbance Units (AU). Decreased MTT activity denotes impairment of mitochondrial function and is indicative of cell damage.
Statistical Analysis. Data from each treatment were independently analyzed and their averaged values were used for statistical analysis. The treatment information was kept concealed throughout the study. Data were represented as mean ± SE. Analysis of variance (ANOVA) was performed to compare the data between multiple concentrations, following post hoc test when analysis of variance was significant. Statistical significance level was set at α = 0.05 using Prism statistical software (GraphPad Software).
Cell viability observed in the control group was set as 100% of neuroprotection. […]

[1] = Conc 100 µM, added at onset of 24 h recovery after OGD 4 h, R24h vehicle = 0%, control = 100%, mean ± SE
[2] = added at onset of 24 h recovery after OGD 4 h, R24h vehicle = 0%, control = 100%, mean ± SE

With CC(C)(C)[N+]([O-])=Cc1ccc(S(=O)(=O)[O-])cc1S(=O)(=O)[O-].[Na+].[Na+] [NXY-059, reference compound] the cell viability (100 µM) was 1.664 ± 0.07 AU and the “Neuroprotection (%)” value [1] was 41.93 ± 2.26%.
For C#CCOc1ccc2nc(Cl)c(/C=[N+](\[O-])Cc3ccccc3)cc2c1 [QN1, (Z)-N-Benzyl-1-(2-chloro-6-(prop-2-yn-1-yloxy)quinolin-3-yl)methanimine oxide], the Neuroprotection at 1 µM [2] was 26.9 ± 0.88%, the Neuroprotection at 10 µM [2] was 34.8 ± 0.78% and the Neuroprotection at 100 µM [1] was 41.3 ± 1.91%. The “protective effect (cell viability compared with vehicle-treated group R24h), in words” value was “no remarkable overall protective effect”.
In the case of C#CCOc1ccc2nc(Cl)c(/C=[N+](\[O-])C(C)(C)C)cc2c1 [QN2, (Z)-N-tert-Butyl-1-(2-chloro-6-(prop-2-yn-1-yloxy)quinolin-3-yl)methanimine oxide], the Neuroprotection at 1 µM [2] is reported as 33.7 ± 0.73%, the Neuroprotection at 10 µM [2] is reported as 33.3 ± 0.93% and the Neuroprotection at 100 µM [1] is reported as 40 ± 0.77%. The “protective effect (cell viability compared with vehicle-treated group R24h), in words” value was “no remarkable overall protective effect”.
Work on [O-]/[N+](=C\c1cc2cc(OCc3ccccc3)ccc2nc1Cl)Cc1ccccc1 [QN3, (Z)-N-Benzyl-1-(6-(benzyloxy)-2-chloroquinolin-3-yl)methanimine oxide] yielded a Neuroprotection at 1 µM [2] of 45.2 ± 1%.
For CC(C)(C)/[N+]([O-])=C/c1cc2cc(OCc3ccccc3)ccc2nc1Cl [QN4, (Z)-N-tert-Butyl-1-(6-(benzyloxy)-2-chloroquinolin-3-yl)methanimine oxide], the “neuroprotection effect / potency compared with references, in words” value was “highest neuroprotection effect”, the cell viability (1 µM) was 1.777 ± 0.04 AU and the Neuroprotection at 1 µM [2] was 67.9 ± 1.44%.
In the case of COc1ccc2nc(O)c(/C=[N+](\[O-])C(C)(C)C)cc2c1 [QN5, (Z)-N-tert-Butyl-1-(2-hydroxy-6-methoxyquinolin-3-yl)methanimine oxide], the Neuroprotection at 1 µM [2] is reported as 24.5 ± 0.54% and the “protective effect (cell viability compared with vehicle-treated group R24h), in words” value is reported as “did not give a remarkable protective effect”.
For COc1ccc2nc(F)c(/C=[N+](\[O-])Cc3ccccc3)cc2c1 [QN6, (Z)-N-Benzyl-1-(6-(methoxy)-2-fluoroquinolin-3-yl)methanimine oxide], the Neuroprotection at 1 µM [2] was 26.3 ± 0.89%, the Neuroprotection at 10 µM [2] was 25.1 ± 1.03% and the “protective effect (cell viability compared with vehicle-treated group R24h), in words” value was “did not show significant differences to the value obtained for the vehicle-treated group”.
For COc1ccc2nc(F)c(/C=[N+](\[O-])C(C)(C)C)cc2c1 [QN7, (Z)-N-tert-Butyl-1-(6-(methoxy)-2-fluoroquinolin-3-yl)methanimine oxide], the Neuroprotection at 1 µM [2] was 38.5 ± 0.62% and the “protective effect (cell viability compared with vehicle-treated group R24h), in words” value was “did not show significant differences to the value obtained for the vehicle-treated group”.
With COc1ccc2nc(S(=O)(=O)c3ccccc3)c(/C=[N+](\[O-])Cc3ccccc3)cc2c1 [QN8, (Z)-N-Benzyl-1-(6-methoxy-2-(phenylsulfonyl)quinolin-3-yl)methanimine oxide] the “neuroprotection effect / potency compared with references, in words” value was “highest neuroprotection effect” and the Neuroprotection at 1 µM [2] was 54.1 ± 2.27%.
COc1ccc2nc(S(=O)(=O)c3ccc([N+](=O)[O-])cc3)c(/C=[N+](\[O-])Cc3ccccc3)cc2c1 [QN10, (Z)-N-Benzyl-1-(2-((4-nitrophenyl)sulfonyl)-6-methoxyquinolin-3-yl)methanimine oxide] showed a Neuroprotection at 1 µM [2] of 47.2 ± 0.94%.
For COc1ccc2nc(S(=O)(=O)c3ccc([N+](=O)[O-])cc3)c(/C=[N+](\[O-])C(C)(C)C)cc2c1 [QN11, (Z)-N-tert-Butyl-1-(2-((4-nitrophenyl)sulfonyl)-6-methoxyquinolin-3-yl)methanimine oxide], the Neuroprotection at 1 µM [2] was 46.5 ± 1.94%.
For COc1ccc2nc(-c3ccc(C(F)(F)F)cc3)c(/C=[N+](\[O-])C(C)(C)C)cc2c1 [QN13, (Z)-N-tert-Butyl-1-(6-methoxy-2-(4-(trifluoromethyl)phenyl)quinolin-3-yl)methanimine oxide], the Neuroprotection at 1 µM [2] was 39.3 ± 1.16%.
With COc1ccc2nc(-c3ccc([N+](=O)[O-])cc3)c(/C=[N+](\[O-])Cc3ccccc3)cc2c1 [QN14, (Z)-N-Benzyl-1-(6-methoxy-2-(4-nitrophenyl)quinolin-3-yl)methanimine oxide] the “neuroprotection effect / potency compared with references, in words” value was “highest neuroprotection effect”, the cell viability (1 µM) was 1.742 ± 0.04 AU and the Neuroprotection at 1 µM [2] was 60.1 ± 1.24%. For the same compound, the “toxicity / safety, in words” value was “safe”.
COc1ccc2nc(-c3ccc([N+](=O)[O-])cc3)c(/C=[N+](\[O-])C(C)(C)C)cc2c1 [QN15, (Z)-N-tert-Butyl-1-(6-methoxy-2-(4-nitrophenyl)quinolin-3-yl)methanimine oxide] was tested, and the “neuroprotection effect / potency compared with references, in words” value was “highest neuroprotection effect”, the Neuroprotection at 1 µM [2] was 48.1 ± 1.21% and the “toxicity / safety, in words” value was “safe”.
With CCOC(=O)/C=C/c1nc2ccc(OC)cc2cc1/C=[N+](\[O-])C(C)(C)C [QN16, (Z)-N-tert-Butyl-1-(2-((E)-3-ethoxy-3-oxoprop-1-en-1-yl)-6-methoxyquinolin-3-yl)methanimine oxide] the “effect compared with vehicle R24h, in words” value (1 µM dose) was “higher effect than vehicle R24h”.
In the case of COc1ccc2nc(Cl)c(/C=[N+](\[O-])C(C)(C)C)cc2c1 [QN23, (Z)-N-tert-butyl-1-(2-chloro-6-methoxyquinolin-3-yl)methanimine oxide, reference compound], the cell viability (10 µM) is reported as 1.695 ± 0.03 AU and the Neuroprotection at 10 µM [2] is reported as 49 ± 0.89%.
In the case of C[N+](C)(C)CCOP(=O)(O)OP(=O)([O-])OC[C@H]1O[C@@H](n2ccc(N)nc2=O)[C@H](O)[C@@H]1O [citicoline, reference compound], the cell viability (100 µM) is reported as 1.588 ± 0.02 AU.
